Assay results published in doi:10.1101/2025.08.29.673196v2, “Development and characterization of Novel Small Molecule Inhibitors Targeting LAG-3 Protein” (biorxiv, 2025).

These compounds were tested against T1, LAG-3 (biotinylated LAG-3 of HTRF LAG-3/MHCII binding assay) (Homo sapiens, UniProt P18627) (assay: HTRF LAG-3/MHCII binding inhibition).
T1 construct: gene LAG3; biotinylated LAG-3 reagent of Revvity HTRF LAG-3/MHCII kit
T1 sequence (P18627 23-450 limits assumed): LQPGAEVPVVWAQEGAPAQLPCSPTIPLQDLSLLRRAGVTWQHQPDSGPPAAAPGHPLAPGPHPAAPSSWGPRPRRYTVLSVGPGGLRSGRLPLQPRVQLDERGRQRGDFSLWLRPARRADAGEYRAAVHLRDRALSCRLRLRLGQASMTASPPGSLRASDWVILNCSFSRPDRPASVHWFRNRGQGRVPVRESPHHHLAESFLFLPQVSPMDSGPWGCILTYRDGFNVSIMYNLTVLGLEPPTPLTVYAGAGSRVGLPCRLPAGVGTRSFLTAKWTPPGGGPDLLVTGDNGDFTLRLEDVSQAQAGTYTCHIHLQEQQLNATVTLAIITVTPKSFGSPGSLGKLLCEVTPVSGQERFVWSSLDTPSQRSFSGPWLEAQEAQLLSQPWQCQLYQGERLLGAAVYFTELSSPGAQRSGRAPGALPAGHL

Compound | IC50
Cc1cc(=O)oc2cc(NC(=O)c3cc(NC(=O)c4ccccc4)ccc3Oc3ccc(C(=O)O)cc3)ccc12 [LG-125] | 21000 nM
Cc1cc(=O)oc2cc(NC(=O)c3cc(NC(=O)c4cccc(C5(C(F)(F)F)CCC5)c4)ccc3Oc3ccc(C(=O)O)cc3)ccc12 [LG-131] | 602 nM
COc1ccc(OC)c(NC(=O)C(=O)Nc2ccc(Oc3ccc(C(=O)O)cc3)c(C(=O)Nc3ccc4c(C)cc(=O)oc4c3)c2)c1 [LG-164] | 371 nM
Cc1cc(=O)oc2cc(NC(=O)c3cc(NS(=O)(=O)N4CCC(c5ccccc5)CC4)ccc3Oc3ccc(C(=O)O)cc3)ccc12 [LG-193] | 467 nM
